In ChEMBL document CHEMBL5653631, “A Potent and Selective ULK1 Inhibitor Suppresses Autophagy and Sensitizes Cancer Cells to Nutrient Stress” (iScience, 2018):

Experiments:
[1] = target: Tyrosine-protein kinase CSK (Homo sapiens) (UniProt P41240); assay: Inhibition of human recombinant CSK at 40 nM related to control ULK1
[2] = target: Maternal embryonic leucine zipper kinase (Homo sapiens) (UniProt Q14680); assay: Inhibition of human recombinant MELK at 40 nM related to control ULK1
[3] = target: Calcium/calmodulin-dependent protein kinase kinase 1 (Homo sapiens) (UniProt Q8N5S9); assay: Inhibition of human recombinant CaMKK1 at 40 nM related to control ULK1
Sequence of Calcium/calmodulin-dependent protein kinase kinase 1 (Homo sapiens) (Q8N5S9 whole entry, looked up, the tested form may be a part): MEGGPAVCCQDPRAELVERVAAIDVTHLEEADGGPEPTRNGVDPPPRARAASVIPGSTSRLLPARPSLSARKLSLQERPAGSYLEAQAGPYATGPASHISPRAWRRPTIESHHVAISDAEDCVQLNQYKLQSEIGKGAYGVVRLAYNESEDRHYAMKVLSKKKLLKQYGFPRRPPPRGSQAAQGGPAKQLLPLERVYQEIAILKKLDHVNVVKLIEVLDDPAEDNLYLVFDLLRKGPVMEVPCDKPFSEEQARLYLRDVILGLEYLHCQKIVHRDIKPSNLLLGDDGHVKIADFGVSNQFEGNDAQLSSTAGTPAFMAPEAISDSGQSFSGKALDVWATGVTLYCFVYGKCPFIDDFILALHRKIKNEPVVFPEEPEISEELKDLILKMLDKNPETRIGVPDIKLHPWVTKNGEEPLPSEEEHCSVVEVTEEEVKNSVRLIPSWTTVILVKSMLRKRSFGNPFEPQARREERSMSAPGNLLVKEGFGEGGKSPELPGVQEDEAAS

[4] = target: T1, Discoidin domain-containing receptor 2 (Homo sapiens) (UniProt Q16832); assay: Inhibition of human recombinant DDR2 at 40 nM related to control ULK1
T1 sequence (whole entry): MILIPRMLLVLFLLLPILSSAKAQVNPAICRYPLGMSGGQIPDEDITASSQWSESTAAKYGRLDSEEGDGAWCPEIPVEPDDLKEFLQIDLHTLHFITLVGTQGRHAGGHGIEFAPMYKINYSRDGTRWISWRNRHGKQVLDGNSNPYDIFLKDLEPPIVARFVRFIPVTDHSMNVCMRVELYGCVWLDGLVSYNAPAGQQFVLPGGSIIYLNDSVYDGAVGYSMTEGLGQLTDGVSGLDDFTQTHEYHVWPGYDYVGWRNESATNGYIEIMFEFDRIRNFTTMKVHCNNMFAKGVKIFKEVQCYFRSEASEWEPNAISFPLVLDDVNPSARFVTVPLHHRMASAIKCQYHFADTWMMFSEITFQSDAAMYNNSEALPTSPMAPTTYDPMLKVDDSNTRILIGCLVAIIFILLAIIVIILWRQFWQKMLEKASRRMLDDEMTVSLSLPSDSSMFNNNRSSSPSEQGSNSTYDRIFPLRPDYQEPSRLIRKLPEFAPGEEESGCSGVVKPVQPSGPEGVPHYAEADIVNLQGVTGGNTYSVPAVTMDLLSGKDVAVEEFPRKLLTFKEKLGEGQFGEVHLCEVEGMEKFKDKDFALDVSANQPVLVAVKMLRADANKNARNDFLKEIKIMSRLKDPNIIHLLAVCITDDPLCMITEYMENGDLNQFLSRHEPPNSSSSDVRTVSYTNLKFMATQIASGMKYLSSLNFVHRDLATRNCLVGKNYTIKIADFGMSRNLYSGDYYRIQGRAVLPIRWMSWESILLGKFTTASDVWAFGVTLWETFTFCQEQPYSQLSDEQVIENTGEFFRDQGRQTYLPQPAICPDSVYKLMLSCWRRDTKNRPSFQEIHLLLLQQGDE

[5] = target: Tau-tubulin kinase 2 (Homo sapiens) (UniProt Q6IQ55); assay: Inhibition of human recombinant TTBK2 at 40 nM related to control ULK1
[6] = target: Serine/threonine-protein kinase MRCK alpha (Homo sapiens) (UniProt Q5VT25); assay: Inhibition of human recombinant MRCKa at 500 nM related to control ULK1
[7] = target: Platelet-derived growth factor receptor alpha (Homo sapiens) (UniProt P16234); assay: Inhibition of human recombinant PDGFRa at 500 nM related to control ULK1
[8] = target: T2, Mitogen-activated protein kinase 12 (Homo sapiens) (UniProt P53778); assay: Inhibition of human recombinant p38gamma at 500 nM related to control ULK1
T2 sequence (whole entry): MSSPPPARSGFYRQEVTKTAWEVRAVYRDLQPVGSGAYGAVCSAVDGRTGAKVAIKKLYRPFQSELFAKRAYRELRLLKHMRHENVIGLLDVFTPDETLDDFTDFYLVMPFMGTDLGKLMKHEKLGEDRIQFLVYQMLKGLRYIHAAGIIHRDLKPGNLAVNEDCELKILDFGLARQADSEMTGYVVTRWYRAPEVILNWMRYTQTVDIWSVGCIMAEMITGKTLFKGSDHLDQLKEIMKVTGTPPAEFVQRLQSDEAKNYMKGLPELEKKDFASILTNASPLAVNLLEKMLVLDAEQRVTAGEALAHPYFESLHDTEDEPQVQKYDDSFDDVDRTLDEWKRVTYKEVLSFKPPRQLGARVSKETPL

[9] = target: T3, SNF-related serine/threonine-protein kinase (Homo sapiens) (UniProt Q9NRH2); assay: Inhibition of human recombinant SNRK at 500 nM related to control ULK1
T3 sequence (whole entry): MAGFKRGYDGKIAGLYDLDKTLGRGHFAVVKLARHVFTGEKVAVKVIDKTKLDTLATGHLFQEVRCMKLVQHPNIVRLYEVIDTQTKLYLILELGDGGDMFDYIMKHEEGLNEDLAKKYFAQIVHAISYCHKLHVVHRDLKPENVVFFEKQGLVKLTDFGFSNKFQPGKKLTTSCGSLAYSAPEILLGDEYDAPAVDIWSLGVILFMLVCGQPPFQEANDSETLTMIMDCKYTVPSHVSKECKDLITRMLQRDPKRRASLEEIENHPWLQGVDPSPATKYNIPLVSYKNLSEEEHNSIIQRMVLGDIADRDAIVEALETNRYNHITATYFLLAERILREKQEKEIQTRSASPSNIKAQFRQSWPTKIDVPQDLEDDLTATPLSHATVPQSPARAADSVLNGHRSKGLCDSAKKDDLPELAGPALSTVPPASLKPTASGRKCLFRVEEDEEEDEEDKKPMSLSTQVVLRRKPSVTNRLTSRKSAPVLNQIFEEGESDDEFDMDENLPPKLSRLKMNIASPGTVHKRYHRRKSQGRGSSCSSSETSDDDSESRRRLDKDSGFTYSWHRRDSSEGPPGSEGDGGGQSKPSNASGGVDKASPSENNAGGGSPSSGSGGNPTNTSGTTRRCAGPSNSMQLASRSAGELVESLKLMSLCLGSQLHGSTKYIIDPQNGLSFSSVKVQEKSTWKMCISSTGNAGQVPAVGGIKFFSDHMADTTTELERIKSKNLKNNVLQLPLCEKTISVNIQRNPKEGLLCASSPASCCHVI

[10] = target: Transient receptor potential cation channel subfamily M member 7 (Homo sapiens) (UniProt Q96QT4); assay: Inhibition of human recombinant ChaK1 at 500 nM in presence of ATP by radiometric assay relative to control
Sequence of Transient receptor potential cation channel subfamily M member 7 (Homo sapiens) (Q96QT4 whole entry): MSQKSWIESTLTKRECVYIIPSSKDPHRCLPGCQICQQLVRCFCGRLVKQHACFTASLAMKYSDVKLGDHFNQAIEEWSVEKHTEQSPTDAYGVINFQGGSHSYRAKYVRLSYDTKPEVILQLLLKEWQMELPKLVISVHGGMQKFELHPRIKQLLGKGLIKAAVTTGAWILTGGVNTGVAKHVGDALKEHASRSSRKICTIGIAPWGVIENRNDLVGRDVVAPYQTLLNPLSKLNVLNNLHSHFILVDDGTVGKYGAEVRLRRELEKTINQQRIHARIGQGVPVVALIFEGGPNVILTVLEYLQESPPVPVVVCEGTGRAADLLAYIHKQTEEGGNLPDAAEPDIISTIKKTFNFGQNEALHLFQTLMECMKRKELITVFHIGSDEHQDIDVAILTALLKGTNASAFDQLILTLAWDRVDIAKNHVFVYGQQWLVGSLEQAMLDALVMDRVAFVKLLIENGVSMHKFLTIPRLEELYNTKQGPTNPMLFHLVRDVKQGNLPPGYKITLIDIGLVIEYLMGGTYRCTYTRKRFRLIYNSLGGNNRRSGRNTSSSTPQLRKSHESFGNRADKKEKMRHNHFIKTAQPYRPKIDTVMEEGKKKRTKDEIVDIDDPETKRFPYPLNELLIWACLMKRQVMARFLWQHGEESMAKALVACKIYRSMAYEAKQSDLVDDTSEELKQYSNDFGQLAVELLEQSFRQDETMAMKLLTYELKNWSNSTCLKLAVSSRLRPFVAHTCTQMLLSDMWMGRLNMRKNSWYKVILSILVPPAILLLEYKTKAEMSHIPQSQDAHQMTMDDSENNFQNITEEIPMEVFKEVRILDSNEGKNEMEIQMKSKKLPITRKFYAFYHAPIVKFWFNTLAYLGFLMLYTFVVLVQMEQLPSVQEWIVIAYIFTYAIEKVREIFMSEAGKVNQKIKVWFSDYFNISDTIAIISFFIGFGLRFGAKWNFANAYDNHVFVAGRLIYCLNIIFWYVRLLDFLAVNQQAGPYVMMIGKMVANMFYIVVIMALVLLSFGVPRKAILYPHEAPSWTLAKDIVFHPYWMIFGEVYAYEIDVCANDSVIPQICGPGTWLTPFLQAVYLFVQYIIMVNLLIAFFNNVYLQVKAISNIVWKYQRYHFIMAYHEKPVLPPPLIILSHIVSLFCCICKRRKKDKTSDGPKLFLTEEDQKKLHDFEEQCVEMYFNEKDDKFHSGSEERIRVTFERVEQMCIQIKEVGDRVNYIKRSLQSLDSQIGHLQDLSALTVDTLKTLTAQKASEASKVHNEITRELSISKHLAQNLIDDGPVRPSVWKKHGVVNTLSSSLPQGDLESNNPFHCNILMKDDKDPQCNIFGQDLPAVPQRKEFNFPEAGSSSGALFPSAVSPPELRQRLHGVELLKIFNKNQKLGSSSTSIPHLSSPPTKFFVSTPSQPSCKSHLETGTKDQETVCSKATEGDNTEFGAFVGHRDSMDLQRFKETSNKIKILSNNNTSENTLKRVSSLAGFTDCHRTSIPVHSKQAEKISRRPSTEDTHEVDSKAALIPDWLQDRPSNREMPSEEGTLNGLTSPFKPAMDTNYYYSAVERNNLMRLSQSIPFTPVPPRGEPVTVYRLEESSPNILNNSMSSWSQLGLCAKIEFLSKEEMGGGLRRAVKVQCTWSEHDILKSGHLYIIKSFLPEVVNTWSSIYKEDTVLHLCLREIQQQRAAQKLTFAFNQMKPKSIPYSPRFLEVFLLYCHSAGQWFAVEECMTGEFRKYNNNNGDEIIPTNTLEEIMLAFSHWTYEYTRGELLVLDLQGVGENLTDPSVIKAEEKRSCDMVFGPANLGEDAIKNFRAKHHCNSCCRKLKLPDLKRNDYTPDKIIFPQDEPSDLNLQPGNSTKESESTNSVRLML

[11] = target: Calcium/calmodulin-dependent protein kinase kinase 1 (Homo sapiens) (UniProt Q8N5S9); assay: Inhibition of human recombinant CaMKK1 at 15 nM in presence of ATP by radiometric assay relative to control
[12] = target: G protein-coupled receptor kinase 5 (Homo sapiens) (UniProt P34947); assay: Inhibition of human recombinant GPRK5 at 15 nM related to control ULK1
[13] = target: STE20-like serine/threonine-protein kinase (Homo sapiens) (UniProt Q9H2G2); assay: Inhibition of human recombinant SLK at 15 nM in presence of ATP by radiometric assay relative to control
Sequence of STE20-like serine/threonine-protein kinase (Homo sapiens) (Q9H2G2 whole entry, looked up): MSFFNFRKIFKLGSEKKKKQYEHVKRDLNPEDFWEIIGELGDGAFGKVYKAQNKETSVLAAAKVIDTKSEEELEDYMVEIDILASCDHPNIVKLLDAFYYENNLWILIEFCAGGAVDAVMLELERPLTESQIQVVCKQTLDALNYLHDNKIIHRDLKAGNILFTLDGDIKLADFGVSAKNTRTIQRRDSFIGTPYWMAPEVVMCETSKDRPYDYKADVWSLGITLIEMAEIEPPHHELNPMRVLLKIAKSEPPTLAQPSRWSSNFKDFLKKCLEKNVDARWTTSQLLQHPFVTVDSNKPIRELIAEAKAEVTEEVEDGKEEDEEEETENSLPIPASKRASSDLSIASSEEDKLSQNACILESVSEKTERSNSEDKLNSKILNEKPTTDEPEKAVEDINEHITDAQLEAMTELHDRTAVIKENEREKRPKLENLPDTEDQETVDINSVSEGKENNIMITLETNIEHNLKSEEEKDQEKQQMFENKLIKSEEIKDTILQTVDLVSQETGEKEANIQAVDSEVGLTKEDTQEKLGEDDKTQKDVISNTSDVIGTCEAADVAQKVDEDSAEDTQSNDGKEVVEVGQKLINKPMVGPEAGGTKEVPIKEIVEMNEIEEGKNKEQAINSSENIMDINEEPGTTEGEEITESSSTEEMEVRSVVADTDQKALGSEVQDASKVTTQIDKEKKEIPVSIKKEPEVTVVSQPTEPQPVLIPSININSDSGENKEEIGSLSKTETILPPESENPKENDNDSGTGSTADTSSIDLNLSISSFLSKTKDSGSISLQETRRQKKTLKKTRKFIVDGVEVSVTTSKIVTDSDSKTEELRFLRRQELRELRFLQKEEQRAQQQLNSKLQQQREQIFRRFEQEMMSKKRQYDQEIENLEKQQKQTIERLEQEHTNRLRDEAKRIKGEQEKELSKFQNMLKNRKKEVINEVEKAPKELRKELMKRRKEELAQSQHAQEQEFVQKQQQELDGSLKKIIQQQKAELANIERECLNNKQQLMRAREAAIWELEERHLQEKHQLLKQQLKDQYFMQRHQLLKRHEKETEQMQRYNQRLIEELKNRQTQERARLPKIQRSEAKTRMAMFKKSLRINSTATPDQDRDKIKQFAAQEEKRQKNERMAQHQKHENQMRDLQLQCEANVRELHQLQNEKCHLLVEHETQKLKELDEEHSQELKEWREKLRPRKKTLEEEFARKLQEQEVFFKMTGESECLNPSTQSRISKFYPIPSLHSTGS

Sequence of Maternal embryonic leucine zipper kinase (Homo sapiens) (Q14680 whole entry, looked up): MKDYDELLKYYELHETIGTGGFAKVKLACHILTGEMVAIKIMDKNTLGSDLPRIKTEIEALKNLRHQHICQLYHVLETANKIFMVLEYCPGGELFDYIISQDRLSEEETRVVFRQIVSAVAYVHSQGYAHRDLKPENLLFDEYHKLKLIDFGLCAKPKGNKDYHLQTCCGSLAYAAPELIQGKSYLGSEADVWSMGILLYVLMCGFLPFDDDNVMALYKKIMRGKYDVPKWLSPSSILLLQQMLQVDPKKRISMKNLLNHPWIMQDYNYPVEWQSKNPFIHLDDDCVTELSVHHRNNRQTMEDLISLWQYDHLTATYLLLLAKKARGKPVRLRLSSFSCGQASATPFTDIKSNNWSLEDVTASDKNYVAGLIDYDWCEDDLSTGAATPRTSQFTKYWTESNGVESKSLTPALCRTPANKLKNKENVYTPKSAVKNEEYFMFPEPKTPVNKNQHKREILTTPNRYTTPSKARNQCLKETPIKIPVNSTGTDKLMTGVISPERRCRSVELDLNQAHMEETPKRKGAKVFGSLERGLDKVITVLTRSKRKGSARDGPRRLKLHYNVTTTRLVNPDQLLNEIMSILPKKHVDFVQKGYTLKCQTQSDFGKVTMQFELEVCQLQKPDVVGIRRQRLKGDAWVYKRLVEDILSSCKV
Sequence of Tyrosine-protein kinase CSK (Homo sapiens) (P41240 2-450 limits assumed): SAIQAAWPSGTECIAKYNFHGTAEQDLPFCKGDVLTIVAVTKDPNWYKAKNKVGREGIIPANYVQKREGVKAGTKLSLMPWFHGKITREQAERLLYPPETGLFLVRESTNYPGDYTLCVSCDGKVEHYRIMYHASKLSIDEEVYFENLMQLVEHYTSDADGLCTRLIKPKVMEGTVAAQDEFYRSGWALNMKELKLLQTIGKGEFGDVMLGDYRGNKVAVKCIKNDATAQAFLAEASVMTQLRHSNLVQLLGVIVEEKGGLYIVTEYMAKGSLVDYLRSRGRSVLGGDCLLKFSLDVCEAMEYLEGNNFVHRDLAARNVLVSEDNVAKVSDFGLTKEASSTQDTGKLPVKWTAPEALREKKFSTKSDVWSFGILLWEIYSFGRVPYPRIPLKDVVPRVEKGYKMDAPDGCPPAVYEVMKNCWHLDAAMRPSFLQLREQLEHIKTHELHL

O=C(N[C@@H](C1CC1)C(F)(F)F)c1cc(-c2cnn3cc(-c4ccc(F)cc4)cnc23)cs1
fold change (FC) [1]: 0
fold change (FC) [2]: 0.27
fold change (FC) [3]: 0
fold change (FC) [4]: 0
fold change (FC) [5]: 0

CNC(=O)c1ccccc1Oc1nc(Nc2cc(OC)c(OC)c(OC)c2)ncc1Br
fold change (FC) [6]: 0.09
fold change (FC) [7]: 0
fold change (FC) [8]: 0
fold change (FC) [9]: 0
inhibition [10]: 0%

CC(C)[C@H](NC(=O)c1cc(-c2cnn3cc(-c4ccc(OCCN5CCCCC5)cc4)cnc23)cs1)C(F)(F)F
inhibition [11]: 0%
fold change (FC) [12]: 0
inhibition [13]: 22%
